Test results reported in ChEMBL document CHEMBL1201862, “PubChem BioAssay data set” (2004).
The source made the active and inactive calls.

Key:
[1] = viability loss in Mcl1-dependent HMC-1-8 cells, dose response, selectivity assay for A1 inhibitor project, cell-based, luminescence, dry powder (AID 504415); assay type: functional; details: Homo sapiens
[2] = biological target: T1, NACHT, LRR and PYD domains-containing protein 1 (Homo sapiens, UniProt Q9C000); test: NALP1 inhibitors in yeast, dose response, luminescent (AID 488860); assay type: functional
T1 sequence (Q9C000 whole entry): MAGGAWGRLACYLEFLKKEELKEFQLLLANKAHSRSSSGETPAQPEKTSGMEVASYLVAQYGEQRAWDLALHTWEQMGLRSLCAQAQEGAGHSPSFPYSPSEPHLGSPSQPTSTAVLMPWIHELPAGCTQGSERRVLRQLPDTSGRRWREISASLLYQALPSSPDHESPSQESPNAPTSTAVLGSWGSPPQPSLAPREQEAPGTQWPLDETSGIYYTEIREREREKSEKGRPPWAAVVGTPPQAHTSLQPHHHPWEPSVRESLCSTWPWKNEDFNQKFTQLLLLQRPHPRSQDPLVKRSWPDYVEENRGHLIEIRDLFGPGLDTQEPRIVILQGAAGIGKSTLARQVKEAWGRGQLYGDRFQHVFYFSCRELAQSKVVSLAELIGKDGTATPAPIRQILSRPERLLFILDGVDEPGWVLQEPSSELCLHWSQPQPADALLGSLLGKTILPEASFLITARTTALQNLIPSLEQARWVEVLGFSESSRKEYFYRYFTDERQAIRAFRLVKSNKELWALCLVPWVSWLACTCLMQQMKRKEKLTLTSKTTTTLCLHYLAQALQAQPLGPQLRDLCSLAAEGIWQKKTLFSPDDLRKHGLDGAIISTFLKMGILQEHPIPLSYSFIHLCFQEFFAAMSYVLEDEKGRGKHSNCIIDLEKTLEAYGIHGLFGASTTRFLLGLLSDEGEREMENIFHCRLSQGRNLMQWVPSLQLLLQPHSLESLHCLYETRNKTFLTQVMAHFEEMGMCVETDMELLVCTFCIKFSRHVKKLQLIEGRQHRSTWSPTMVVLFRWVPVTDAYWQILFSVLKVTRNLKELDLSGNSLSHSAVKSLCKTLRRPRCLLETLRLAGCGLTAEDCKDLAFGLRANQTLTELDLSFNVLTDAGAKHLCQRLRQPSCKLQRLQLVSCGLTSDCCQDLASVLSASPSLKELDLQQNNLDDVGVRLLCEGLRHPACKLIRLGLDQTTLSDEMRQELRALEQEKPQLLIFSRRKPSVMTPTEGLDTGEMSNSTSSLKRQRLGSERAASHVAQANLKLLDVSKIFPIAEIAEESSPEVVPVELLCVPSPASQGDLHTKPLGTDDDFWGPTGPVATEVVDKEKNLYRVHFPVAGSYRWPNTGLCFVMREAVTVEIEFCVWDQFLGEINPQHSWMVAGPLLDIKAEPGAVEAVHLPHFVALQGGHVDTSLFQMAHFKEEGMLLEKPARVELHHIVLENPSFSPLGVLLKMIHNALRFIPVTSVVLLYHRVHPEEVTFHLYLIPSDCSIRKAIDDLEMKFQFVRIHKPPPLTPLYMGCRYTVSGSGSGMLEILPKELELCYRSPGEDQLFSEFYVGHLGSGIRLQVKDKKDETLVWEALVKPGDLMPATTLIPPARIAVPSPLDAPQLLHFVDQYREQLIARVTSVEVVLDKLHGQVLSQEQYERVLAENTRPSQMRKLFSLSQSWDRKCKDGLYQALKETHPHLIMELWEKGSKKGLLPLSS

[3] = biological target: T2, Replicative DNA helicase DnaB (Mycobacterium tuberculosis, UniProt P9WMR3); test: DnaB intein splicing inhibitors, dose response, biochemical, cell-free fluorescence (AID 449749); assay type: functional
T2 sequence (P9WMR3 whole entry): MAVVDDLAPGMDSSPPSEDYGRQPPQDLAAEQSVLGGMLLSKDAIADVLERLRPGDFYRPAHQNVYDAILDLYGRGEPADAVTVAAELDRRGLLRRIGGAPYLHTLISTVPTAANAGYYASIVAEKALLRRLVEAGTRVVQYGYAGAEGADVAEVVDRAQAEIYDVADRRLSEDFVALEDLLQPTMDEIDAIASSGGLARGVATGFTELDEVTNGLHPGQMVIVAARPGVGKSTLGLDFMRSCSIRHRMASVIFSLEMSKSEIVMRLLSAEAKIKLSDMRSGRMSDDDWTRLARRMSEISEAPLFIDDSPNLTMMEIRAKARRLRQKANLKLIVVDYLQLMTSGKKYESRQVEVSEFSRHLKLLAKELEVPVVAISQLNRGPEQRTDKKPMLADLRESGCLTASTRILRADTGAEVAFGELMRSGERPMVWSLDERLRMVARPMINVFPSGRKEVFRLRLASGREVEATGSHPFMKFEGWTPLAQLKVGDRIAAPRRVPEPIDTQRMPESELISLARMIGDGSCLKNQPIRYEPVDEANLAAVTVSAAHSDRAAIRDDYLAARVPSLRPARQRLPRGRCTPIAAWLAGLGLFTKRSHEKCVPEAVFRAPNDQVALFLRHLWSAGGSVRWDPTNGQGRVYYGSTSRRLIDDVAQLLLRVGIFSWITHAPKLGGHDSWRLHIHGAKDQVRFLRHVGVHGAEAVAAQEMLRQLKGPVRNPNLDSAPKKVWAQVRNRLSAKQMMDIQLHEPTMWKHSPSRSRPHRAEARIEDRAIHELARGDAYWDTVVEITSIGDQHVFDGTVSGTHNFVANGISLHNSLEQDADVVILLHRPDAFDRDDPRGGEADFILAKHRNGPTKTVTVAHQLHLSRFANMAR

Protein RecA = biological target: T3, Protein RecA (Mycobacterium tuberculosis, UniProt P9WHJ3); test: Fluorescence Cell-Free Homogeneous Dose Retest to Identify Inhibitors of RecA-Intein Splicing Activity. [Related pubchem assays (depositor defined):AID2097, AID2223, AID489010, AID492950]; assay type: functional
T3 sequence (P9WHJ3 whole entry): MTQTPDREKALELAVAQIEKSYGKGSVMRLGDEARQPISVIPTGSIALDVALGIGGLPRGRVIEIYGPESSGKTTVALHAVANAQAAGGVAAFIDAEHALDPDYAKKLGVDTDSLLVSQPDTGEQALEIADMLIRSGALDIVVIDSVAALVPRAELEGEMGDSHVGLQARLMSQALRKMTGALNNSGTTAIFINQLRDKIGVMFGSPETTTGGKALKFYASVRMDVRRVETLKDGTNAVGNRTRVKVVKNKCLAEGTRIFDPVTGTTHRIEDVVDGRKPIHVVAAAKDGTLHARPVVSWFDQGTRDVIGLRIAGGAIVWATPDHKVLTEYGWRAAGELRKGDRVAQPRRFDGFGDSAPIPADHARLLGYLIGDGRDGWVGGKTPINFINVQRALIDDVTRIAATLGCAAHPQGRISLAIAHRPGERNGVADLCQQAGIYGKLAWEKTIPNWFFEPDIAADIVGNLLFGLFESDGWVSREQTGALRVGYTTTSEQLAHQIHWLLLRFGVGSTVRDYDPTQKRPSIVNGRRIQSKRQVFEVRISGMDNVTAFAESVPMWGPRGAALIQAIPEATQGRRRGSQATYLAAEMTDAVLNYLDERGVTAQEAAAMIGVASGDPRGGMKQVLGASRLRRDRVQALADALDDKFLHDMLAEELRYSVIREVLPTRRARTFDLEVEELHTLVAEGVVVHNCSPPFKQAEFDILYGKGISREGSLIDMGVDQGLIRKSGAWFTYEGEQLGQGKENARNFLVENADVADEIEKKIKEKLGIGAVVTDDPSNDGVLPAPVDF

Saccharomyces cerevisiae = test: NALP1 inhibitor project selectivity study, Caspase-1/ASC signal blockade IC50 in S. cerevisiae (AID 488863); assay type: functional, organism-based
[4] = biological target: Protein disulfide-isomerase (Homo sapiens, UniProt P07237); test: PDI inhibitors, insulin aggregation turbidity, dose response, biochemical, absorbance, cherry-picked samples (AID 602350); assay type: functional
[5] = biological target: Cell division cycle 7-related protein kinase (Homo sapiens, UniProt O00311); assay type: functional;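 further: value obtained from a kinome-wide kinase panel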
[6] = biological target: Cyclin-dependent kinase 19 (Homo sapiens, UniProt Q9BWU1); test: Navigating the Kinome. Panel member name: CDC2L6; assay type: functional
[7] = biological target: DNA dC->dU-editing enzyme APOBEC-3G (Homo sapiens, UniProt Q9HC16); test: APOBEC3G deaminase inhibitors, SAR follow-up, biochemical, fluorescence, single-stranded DNA substrate (AID 602136); assay type: functional; details: read-out: IC50_Mean
[8] = biological target: DNA dC->dU-editing enzyme APOBEC-3A (Homo sapiens, UniProt P31941); test: SAR analysis of small molecule inhibitors of APOBEC3A DNA Deaminase via a fluorescence-based single-stranded DNA deaminase assay.; assay type: functional; details: read-out: IC50_Mean
[9] = biological target: T4, Sphingosine 1-phosphate receptor 4 (Homo sapiens, UniProt O95977); test: Late-stage fluorescence-based dose-response cell-based counterscreen assay to identify agonists of the Sphingosine 1-Phosphate Receptor 3 (S1P3): Sphingosine 1-Phosphate Receptor 4 (S1P4) agonist assay.; assay type: functional
T4 sequence (O95977 whole entry): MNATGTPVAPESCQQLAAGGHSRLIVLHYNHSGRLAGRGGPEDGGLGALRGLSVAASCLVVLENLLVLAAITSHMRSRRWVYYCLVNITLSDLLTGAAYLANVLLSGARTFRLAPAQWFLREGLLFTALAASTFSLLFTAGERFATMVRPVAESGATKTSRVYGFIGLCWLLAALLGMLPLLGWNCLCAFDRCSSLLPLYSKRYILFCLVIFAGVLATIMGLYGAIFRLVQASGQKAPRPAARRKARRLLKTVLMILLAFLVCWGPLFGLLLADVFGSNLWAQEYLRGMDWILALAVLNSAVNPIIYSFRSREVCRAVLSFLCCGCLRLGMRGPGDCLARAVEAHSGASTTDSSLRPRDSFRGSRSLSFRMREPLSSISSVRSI

[10] = biological target: Sphingosine 1-phosphate receptor 2 (Homo sapiens, UniProt O95136); test: Late-stage fluorescence-based dose-response cell-based counterscreen assay to identify agonists of the Sphingosine 1-Phosphate Receptor 3 (S1P3): Sphingosine 1-Phosphate Receptor 2 (S1P2) agonist assay.; assay type: functional
Sphingosine 1-phosphate receptor 2, sequence (O95136 whole entry): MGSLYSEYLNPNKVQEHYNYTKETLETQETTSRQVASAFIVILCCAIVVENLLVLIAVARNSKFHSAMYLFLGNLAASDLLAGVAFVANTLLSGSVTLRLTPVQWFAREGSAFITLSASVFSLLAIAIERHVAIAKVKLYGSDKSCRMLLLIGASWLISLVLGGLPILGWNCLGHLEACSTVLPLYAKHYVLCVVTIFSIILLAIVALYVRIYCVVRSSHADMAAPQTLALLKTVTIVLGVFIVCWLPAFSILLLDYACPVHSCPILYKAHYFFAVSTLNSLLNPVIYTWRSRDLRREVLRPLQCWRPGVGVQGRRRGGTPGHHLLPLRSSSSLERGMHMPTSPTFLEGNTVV

Cell division cycle 7-related protein kinase, sequence (O00311 whole entry): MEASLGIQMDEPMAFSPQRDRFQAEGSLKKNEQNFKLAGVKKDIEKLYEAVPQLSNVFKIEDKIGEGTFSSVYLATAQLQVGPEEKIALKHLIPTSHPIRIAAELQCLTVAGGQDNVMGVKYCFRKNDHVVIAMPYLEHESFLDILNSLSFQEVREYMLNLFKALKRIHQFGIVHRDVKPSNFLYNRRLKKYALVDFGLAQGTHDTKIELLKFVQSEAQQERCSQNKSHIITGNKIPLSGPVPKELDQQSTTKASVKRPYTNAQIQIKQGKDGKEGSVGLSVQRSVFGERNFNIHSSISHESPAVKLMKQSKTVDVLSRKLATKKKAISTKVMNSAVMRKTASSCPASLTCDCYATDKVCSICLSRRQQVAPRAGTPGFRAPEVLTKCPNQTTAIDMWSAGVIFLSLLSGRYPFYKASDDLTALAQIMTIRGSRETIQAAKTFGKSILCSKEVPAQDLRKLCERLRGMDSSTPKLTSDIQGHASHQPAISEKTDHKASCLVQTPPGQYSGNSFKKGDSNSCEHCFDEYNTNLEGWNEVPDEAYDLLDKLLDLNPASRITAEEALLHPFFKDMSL
DNA dC->dU-editing enzyme APOBEC-3G, sequence (Q9HC16 whole entry): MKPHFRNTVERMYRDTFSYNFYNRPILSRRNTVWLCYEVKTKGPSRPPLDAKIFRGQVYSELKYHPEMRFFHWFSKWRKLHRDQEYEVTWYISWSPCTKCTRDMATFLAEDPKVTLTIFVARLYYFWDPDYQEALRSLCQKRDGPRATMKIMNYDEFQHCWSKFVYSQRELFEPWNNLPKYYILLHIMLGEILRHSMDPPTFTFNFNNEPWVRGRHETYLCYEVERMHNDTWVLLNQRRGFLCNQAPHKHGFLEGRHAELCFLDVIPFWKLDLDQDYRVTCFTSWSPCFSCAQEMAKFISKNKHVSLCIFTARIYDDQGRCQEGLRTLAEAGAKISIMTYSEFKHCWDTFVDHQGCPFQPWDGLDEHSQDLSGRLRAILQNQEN
Cyclin-dependent kinase 19, sequence (Q9BWU1 whole entry): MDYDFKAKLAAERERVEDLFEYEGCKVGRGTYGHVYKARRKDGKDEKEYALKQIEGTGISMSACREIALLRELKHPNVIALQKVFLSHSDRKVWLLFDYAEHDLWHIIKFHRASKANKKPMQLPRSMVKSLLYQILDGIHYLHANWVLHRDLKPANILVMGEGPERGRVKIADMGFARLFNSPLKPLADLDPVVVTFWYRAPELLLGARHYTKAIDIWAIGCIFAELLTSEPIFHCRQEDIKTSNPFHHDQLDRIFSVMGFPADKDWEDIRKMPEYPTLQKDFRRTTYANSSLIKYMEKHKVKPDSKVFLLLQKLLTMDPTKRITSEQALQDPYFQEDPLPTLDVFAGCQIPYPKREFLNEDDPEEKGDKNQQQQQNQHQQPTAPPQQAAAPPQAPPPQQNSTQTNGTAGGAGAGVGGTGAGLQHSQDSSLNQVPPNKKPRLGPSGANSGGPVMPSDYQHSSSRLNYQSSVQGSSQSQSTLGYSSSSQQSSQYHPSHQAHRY
DNA dC->dU-editing enzyme APOBEC-3A, sequence (P31941 whole entry): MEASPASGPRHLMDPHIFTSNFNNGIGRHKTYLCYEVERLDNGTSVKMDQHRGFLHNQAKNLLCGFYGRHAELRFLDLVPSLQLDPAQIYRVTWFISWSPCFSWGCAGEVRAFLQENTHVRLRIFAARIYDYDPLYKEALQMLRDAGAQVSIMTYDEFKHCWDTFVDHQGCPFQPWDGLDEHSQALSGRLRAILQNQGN
Protein disulfide-isomerase, sequence (P07237 whole entry): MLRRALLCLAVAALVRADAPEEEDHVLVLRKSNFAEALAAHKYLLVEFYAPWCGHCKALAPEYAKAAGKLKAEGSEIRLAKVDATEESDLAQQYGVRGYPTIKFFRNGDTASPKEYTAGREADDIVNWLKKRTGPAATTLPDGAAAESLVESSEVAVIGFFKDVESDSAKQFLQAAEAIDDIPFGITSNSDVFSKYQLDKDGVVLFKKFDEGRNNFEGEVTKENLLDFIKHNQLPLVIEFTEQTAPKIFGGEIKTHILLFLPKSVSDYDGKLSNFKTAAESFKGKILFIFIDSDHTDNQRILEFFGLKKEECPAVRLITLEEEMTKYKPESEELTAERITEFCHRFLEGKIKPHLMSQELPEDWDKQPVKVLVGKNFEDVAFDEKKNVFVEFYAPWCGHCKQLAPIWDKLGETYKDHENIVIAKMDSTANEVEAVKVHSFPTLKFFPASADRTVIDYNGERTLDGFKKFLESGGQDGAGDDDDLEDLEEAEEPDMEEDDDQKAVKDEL

In the case of `Cn1c(=O)c([N+](=O)[O-])c(-n2cnc3ccccc32)c2ccccc21`, the AC50 [1] is reported as 69.6 µM (active), the IC50 [2] is reported as > 100 µM (inactive) and the AC50 [3] is reported as 8.12 µM (active). For the same molecule, the EC50 (Protein RecA) was 7.26 µM (active) and the IC50 (Saccharomyces cerevisiae) was 72.3 µM (active).
With `Cc1ccc2nc(N3CCN(Cc4nnnn4C4CCCC4)CC3)c(C#N)cc2c1` the AC50 [4] was 4.05 µM (active).
With `O=c1nc(-c2ccccc2)cc(-c2ccncc2)[nH]1` the Ki [5] was 0.158 µM (active) and the Ki [6] was > 100 µM (inactive).
In the case of `Nc1nc2sc3c(c2c2nnc(SCc4ccc(Cl)cc4)n12)CCCC3`, the IC50 [7] is reported as > 99 µM (inactive) and the IC50 [8] is reported as > 99 µM (inactive).
In the case of `O=C(c1noc2ccccc12)N(C1CCCCC1)C1CCCCC1`, the EC50 [9] is reported as > 50 µM (inactive) and the EC50 [10] is reported as > 50 µM (inactive).
